Assay results reported in ChEMBL document CHEMBL1201862, “PubChem BioAssay data set” (2004).
Calls of active or inactive are those of the source.

Experiments:
[1] = molecular target: T1, High affinity choline transporter 1 (Homo sapiens, UniProt Q9GZV3); experiment: CHT inhibitors, dose response, cell-based, 5-point CRC, membrane potential dye (AID 504840); type: functional
T1 sequence (Q9GZV3 whole entry): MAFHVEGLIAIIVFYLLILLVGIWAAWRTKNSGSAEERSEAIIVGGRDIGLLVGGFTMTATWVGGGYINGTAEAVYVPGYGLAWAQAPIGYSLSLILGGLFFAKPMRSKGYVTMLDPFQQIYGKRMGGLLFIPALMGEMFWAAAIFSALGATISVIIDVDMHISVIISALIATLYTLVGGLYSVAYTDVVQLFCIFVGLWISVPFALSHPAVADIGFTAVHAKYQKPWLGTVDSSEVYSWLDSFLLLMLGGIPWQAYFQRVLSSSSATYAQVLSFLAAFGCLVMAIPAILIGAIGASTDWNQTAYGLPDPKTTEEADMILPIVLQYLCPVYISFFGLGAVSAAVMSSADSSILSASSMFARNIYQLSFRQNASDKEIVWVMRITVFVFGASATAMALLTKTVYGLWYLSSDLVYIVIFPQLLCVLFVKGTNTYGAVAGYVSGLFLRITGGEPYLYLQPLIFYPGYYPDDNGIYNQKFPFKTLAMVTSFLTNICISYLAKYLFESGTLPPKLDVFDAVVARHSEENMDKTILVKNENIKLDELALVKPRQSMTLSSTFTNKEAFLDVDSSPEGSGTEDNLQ

Cytochrome P450 1A2 = molecular target: T2, Cytochrome P450 1A2 (Homo sapiens, UniProt P05177);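 further: PubChem cytochrome P450 panel assay, CYP1A2 panel member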
T2 sequence (P05177 whole entry): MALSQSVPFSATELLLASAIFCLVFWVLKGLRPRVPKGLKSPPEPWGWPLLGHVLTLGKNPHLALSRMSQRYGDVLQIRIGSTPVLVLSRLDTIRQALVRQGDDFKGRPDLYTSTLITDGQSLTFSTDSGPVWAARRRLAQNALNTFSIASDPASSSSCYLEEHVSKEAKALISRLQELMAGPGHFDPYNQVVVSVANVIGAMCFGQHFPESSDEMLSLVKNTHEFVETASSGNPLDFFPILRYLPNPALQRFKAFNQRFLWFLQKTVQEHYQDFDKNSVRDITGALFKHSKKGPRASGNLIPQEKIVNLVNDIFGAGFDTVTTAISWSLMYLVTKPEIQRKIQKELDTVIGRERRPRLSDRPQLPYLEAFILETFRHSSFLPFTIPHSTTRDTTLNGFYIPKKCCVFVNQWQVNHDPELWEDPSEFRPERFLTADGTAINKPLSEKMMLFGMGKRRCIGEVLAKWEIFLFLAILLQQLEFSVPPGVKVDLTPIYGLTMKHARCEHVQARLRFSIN

[2] = Luminescence Cell-Based Dose Confirmation HTS to Identify Inhibitors of Platelet Dense Granule Release. [Related pubchem assays: 1663 (Primary HTS), 1678 (Summary of Project)]; type: functional
[3] = molecular target: Luciferin 4-monooxygenase (Photinus pyralis, UniProt P08659); experiment: firefly luciferase enzyme inhibitors, dose response, biochemical, luminescence (AID 1891)
Luciferin 4-monooxygenase, sequence (P08659 whole entry): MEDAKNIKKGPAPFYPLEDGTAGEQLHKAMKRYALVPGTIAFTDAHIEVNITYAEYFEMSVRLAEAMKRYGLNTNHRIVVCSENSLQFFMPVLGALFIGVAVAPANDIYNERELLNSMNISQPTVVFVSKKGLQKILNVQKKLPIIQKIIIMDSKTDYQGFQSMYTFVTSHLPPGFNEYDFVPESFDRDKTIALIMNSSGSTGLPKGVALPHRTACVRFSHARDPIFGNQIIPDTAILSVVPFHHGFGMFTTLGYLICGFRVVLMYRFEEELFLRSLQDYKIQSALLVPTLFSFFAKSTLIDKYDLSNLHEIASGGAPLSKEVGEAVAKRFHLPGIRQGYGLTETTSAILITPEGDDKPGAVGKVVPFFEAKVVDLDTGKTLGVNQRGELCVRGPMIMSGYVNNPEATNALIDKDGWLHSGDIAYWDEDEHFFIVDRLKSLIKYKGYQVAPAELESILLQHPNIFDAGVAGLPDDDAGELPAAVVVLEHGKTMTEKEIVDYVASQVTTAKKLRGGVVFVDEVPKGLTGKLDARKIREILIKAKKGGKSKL

[4] = microbe, parasite or virus in culture; type: functional; details: Mycobacterium tuberculosis
[5] = C. albicans growth with fluconazole, confirmation, fluorescence, retest (AID 2467); type: functional, cell-based
[6] = NIH-3T3 fibroblast cytotoxicity, dose response, cytotoxicity control, cell-based, fluorescence, Alamar Blue, secondary assay (AID 2327); type: functional;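 further: NIH-3T3 mouse fibroblasts cultured with fluconazole at 8 µg/mL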
[7] = inhibitors of firefly luciferase expression or activity, dose response, H4 neuroglioma cells, luminescence (AID 1990); type: functional, cell-based
[8] = Luminescence Cell-Based Dose Response HTS to Identify Inhibitors of 5'UTR Stem-Loop Driven Prion Protein mRNA Translation in H4 Neuroglioblastoma Cells. [Related pubchem assays: 1827 (Project Summary), 1813 (Primary HTS)]; type: functional
[9] = inhibitors of SNCA 5'UTR-driven reporter translation, confirmation, H4 neuroglioma cells, luminescence (AID 1988); type: functional, cell-based
Cytochrome P450 2C9 = Cytochrome P450 2C9 (Homo sapiens, UniProt P11712)
Cytochrome P450 2C9, sequence (P11712 whole entry): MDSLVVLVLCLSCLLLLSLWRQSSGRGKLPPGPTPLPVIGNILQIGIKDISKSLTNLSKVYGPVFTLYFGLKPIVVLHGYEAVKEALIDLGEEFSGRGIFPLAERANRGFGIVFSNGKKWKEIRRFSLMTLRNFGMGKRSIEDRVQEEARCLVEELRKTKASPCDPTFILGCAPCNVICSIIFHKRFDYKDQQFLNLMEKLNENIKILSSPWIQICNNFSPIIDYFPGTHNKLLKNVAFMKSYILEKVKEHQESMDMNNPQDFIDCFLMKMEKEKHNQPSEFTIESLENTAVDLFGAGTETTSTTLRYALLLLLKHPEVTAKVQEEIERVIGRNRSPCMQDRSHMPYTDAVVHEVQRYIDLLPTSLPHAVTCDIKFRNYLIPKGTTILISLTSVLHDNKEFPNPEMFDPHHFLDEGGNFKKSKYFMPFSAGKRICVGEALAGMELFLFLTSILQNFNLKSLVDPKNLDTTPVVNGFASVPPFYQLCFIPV

Cytochrome P450 2D6 = Cytochrome P450 2D6 (Homo sapiens, UniProt P10635);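 further: CYP2D6 member of a cytochrome P450 panel assay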
Cytochrome P450 2D6, sequence (P10635 whole entry): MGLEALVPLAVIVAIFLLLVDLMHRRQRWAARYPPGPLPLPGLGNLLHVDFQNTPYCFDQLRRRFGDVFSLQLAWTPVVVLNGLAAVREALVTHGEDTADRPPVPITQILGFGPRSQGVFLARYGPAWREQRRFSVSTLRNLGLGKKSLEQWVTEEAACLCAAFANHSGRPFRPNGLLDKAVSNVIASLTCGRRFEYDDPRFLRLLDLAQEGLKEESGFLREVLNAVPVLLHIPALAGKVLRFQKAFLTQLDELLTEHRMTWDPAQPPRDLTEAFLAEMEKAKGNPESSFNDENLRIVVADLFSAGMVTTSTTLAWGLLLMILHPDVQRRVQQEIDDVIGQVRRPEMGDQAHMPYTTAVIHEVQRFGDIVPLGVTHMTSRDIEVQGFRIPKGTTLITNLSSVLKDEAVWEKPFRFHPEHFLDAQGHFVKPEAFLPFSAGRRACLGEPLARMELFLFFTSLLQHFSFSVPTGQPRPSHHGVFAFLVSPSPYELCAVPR

[10] = molecular target: T3, Ubiquitin-conjugating enzyme E2 N (Homo sapiens, UniProt P61088); type: functional;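 further: Dose-response confirmation in a TR-FRET assay detecting UBC13-driven polyubiquitin chain formation, inhibition measured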
T3 sequence (P61088 whole entry): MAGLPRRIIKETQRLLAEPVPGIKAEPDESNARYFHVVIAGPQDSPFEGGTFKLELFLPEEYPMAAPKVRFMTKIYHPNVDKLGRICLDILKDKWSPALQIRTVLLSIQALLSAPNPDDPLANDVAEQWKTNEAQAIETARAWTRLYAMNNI

Cytochrome P450 2C19 = Cytochrome P450 2C19 (Homo sapiens, UniProt P33261); experiment: Cytochrome panel assay with activity outcomes. Panel member name: p450-cyp2c19 Compounds with AC50 equal or less than 10 uM are considered active; type: functional; details: read-out: AC50
Cytochrome P450 2C19, sequence (P33261 whole entry): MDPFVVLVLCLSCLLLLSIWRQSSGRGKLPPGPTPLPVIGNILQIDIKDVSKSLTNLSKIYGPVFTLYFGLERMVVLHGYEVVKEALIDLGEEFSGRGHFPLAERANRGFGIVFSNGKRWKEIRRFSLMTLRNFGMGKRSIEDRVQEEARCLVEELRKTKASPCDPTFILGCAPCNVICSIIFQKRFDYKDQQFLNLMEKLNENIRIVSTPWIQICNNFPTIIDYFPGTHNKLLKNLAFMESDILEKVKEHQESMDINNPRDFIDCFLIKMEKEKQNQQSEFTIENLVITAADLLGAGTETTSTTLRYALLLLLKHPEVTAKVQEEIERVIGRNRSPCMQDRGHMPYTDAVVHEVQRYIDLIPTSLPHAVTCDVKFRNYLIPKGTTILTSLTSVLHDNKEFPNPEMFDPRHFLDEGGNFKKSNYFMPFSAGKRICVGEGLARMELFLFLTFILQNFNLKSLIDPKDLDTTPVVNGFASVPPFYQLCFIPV

Which IC50 [1] does the source give for `OCc1ccccc1OCCOc1ccc(Cl)c2cccnc12` here?
The IC50 was 11.5 µM (active).

Which AC50 (Cytochrome P450 1A2) does the source give for `COc1ccc(C(=O)N2CC3(CC(c4cccc([N+](=O)[O-])c4)=NO3)C[C@H]2C(=O)NCC(N)=O)cc1` (some centres not stated) here?
The AC50 was 28.2 µM (inconclusive).

With `NC(=O)C1(N2CCCCC2)CCN(C(=O)Nc2ccccc2C(F)(F)F)CC1` as the molecule, how does the EC50 [2] read?
Its EC50 is > 112 µM (not active).

What about the EC50 [3] of the same molecule?
The EC50 was > 112 µM (not active).

For `CCOC(=O)c1ccccc1N/C=C/C(=O)c1cccs1`, which IC50 [1] is on record?
The IC50 was 13.2 µM (active).

For `C[N+](C)(CCCOc1ccccc1)c1ccccc1.O=C([O-])c1cc2ccccc2cc1O`, which AC50 (Cytochrome P450 1A2) is on record?
Its AC50 is 12.6 µM (inconclusive).

For `O=C(Nc1cccnc1)c1cc(-c2ccc(Cl)c(Cl)c2)on1`, which EC50 [2] is on record?
The EC50 was > 112 µM (not active).

And the EC50 [3]?
Its EC50 is > 112 µM (not active).

With `O=C(O)C=Cc1ccc(Cn2ccnc2)cc1` as the molecule, how does the AC50 (Cytochrome P450 1A2) read?
The AC50 was 31.6 µM (inconclusive).

Which AC50 (Cytochrome P450 1A2) does the source give for `COCCn1c(=O)c(-c2cn(C)c3ccccc23)nc2cnc(N3CCNCC3)nc21` here?
Its AC50 is 12.6 µM (inconclusive).

With `COc1ccc(Nc2cc3n(c(=O)n2)CCc2cc(OC)c(OC)cc2-3)cc1` as the molecule, how does the EC50 [2] read?
The EC50 was 4.68 µM (active).

And the EC50 [3]?
Its EC50 is > 112 µM (not active).

With `CCN(C[C@H]1N[C@@](Cc2ccccc2)(C(=O)OC)[C@H]2C(=O)N(Cc3ccccc3)C(=O)[C@@H]12)C(=O)Nc1ccc(C(F)(F)F)cc1` as the molecule, how does the CC50 [4] read?
Its CC50 is 39.5 µM (active).

What does the source list for `CC(C)CCNCC(=O)NC(c1ccccc1)c1ccccc1`?
EC50 [5]: > 38 µM (not active); EC50 [6]: > 160 µM (inactive)

For `CCOc1ccccc1Nc1cc2n(c(=O)n1)CCc1cc(OC)c(OC)cc1-2`, which EC50 [7] is on record?
The EC50 was 47.8 µM (active).

And the EC50 [8]?
Its EC50 is 30.7 µM (active).

What about the EC50 [2] of the same molecule?
Its EC50 is 1.23 µM (active).

And the EC50 [3]?
Its EC50 is > 112 µM (not active).

What about the EC50 [9] of the same molecule?
Its EC50 is 9.81 µM (active).

Which AC50 (Cytochrome P450 2C9) does the source give for `CS(=O)(=O)N1CCC[C@@]2(CCN(c3ccccc3)C2)C1` here?
The AC50 was 25.1 µM (inconclusive).

What about the AC50 (Cytochrome P450 1A2) of the same molecule?
The AC50 was 31.6 µM (inconclusive).

With `CCc1ccccc1NC(=O)C1C(c2ccccc2)C1(Cl)Cl` (configuration not stated) as the molecule, how does the AC50 (Cytochrome P450 2D6) read?
The AC50 was 11.2 µM (inconclusive).

What about the AC50 (Cytochrome P450 2C9) of the same molecule?
The AC50 was 20 µM (inconclusive).

And the AC50 (Cytochrome P450 1A2)?
Its AC50 is 17.8 µM (inconclusive).

For `C#CCOCCOCCOCCNc1nc(N2CCOCC2)nc(N2CCN(C(=O)CCCCCCCCCCNC(=O)[C@H]([C@@H](C)CC)n3cc(CCCCN=C(N)N)nn3)CC2)n1`, which IC50 [10] is on record?
Its IC50 is > 20 µM (inactive).

With `CCCc1cc(=O)oc2cc(OCC(=O)N3CCc4ccccc43)ccc12` as the molecule, how does the AC50 (Cytochrome P450 2C19) read?
Its AC50 is 1 µM (inconclusive).

And the EC50 [2]?
Its EC50 is > 112 µM (not active).

And the EC50 [3]?
Its EC50 is > 112 µM (not active).

Which results are given for `O=C(NCC1CCCO1)c1cc2n(n1)C(C(F)(F)F)CC(c1ccc(Br)cc1)N2` (configuration not stated)?
EC50 [5]: > 38 µM (not active); EC50 [6]: > 160 µM (inactive)

Which AC50 (Cytochrome P450 1A2) does the source give for `COc1ccc(C(=O)Nc2ccc(Cl)cc2C(=O)NCCN2CCOCC2)cc1` here?
Its AC50 is 22.4 µM (inconclusive).

With `O=C(Nc1nc2ccc(S(=O)(=O)N3CCCCC3)cc2s1)c1ccncc1` as the molecule, how does the EC50 [5] read?
Its EC50 is 1.95 µM (active).

What about the EC50 [6] of the same molecule?
Its EC50 is 130 µM (active).

For `CCCC(/C=C/c1ccc(OC(C)=O)cc1)=C1/c2ccccc2C(=O)N1c1ccccc1`, which CC50 [4] is on record?
Its CC50 is 12.8 µM (active).

Which IC50 [1] does the source give for `CCOc1cc(/C=N/NC(=O)CN2CCCCC2)ccc1OCc1cccc(Cl)c1` here?
Its IC50 is 14.5 µM (active).

For `C/C1=N/NC(=S)NCCCN2CCN(CCCNC(=S)N/N=C(/C)C=NNC(=S)NCCCN3CCN(CCCNC(=S)NN=C1)CC3)CC2`, which AC50 (Cytochrome P450 1A2) is on record?
The AC50 was 3.16 µM (inconclusive).
